Consider 2 compounds from publication PMC9026428, “New Peptide Based Fluconazole Conjugates with Expanded Molecular Targets” (Pharmaceutics, 2022).

≈ marks a conversion by molar mass, not a printed value. Where two headings read alike, the source gives them in different places.

For one data set, the system named is Candida albicans 138. The experiment in a line: microbe, parasite or virus in culture. Particulars: 37 °C; for MIC50 / MIC90: C. albicans 138 (fluconazole-resistant clinical isolate), RPMI 1640/MOPS pH 7.0, 24 h, triplicate; for MIC50: at least 50% growth inhibition vs growth control; for MIC90: lowest concentration with no visible growth. As for the experimental part: (§1) The assessment of antifungal potential of synthesized agents was carried out using four reference strains (C. albicans ATCC 10231, C. albicans SC5314, C. glabrata DSM […] and C. krusei DSM […]) and six clinical isolates of fluconazole-resistant C. albicans that were provided by the Hospital of Medical University of Gdansk, Poland. Moreover, four C. albicans isolates, assigned as B3, B4, Gu4 and Gu5, were used for investigation whether the synthesized fluconazole derivatives were effectively removed from the yeast cells by the drug efflux transporters, as in the case of fluconazole. These strains were kindly provided by Prof. Joachim Morschhäuser from University of Würzburg (Würzburg, Germany). Strains Gu4 and B3 were fluconazole-sensitive isolates obtained from early infection episodes, while Gu5 and B4 were the corresponding fluconazole-resistant isolates obtained from later episodes in the same patients treated with fluconazole. The lack of susceptibility of the Gu5 strain to fluconazole was a consequence of overexpression of CDR1/2 genes encoding ABC transporters, whereas the resistance of B4 strain was caused by overexpression of the MDR1 gene encoding a membrane transport protein of the major facilitator superfamily (MFS). All of these Candida spp. strains were maintained on YPD agar plates (1% (w/v) yeast extract, 2% (w/v) peptone, 2% (w/v) glucose, 2% (w/v) agar) at 30 °C for 16–24 h. For all of the assays aimed at assessing the antifungal potential of the synthesized agents, the yeasts were cultivated at 37 °C in RPMI 1640 medium (with L-glutamine, without sodium bicarbonate, Sigma-Aldrich, Darmstadt, Germany)) buffered to a pH of 7.0 with 0.165 M morpholinepropanesulfonic acid (MOPS) buffer (Sigma-Aldrich). In this study, we used the human foreskin fibroblast cell line Hs27 (ATCC CRL 1634TM) and the human endothelial cell line HUVEC (C2519A), purchased from Lonza Group AG, (Basel, Switzerland). The Hs27 cells were maintained in cell media consisting of Dulbecco’s modified Eagles medium (DMEM), (Corning, Arizona, USA) with 10% fetal bovine serum (FBS), (Corning, Port Elizabeth, South Africa), 1% penicillin/streptomycin (Sigma-Aldrich Inc., Darmstadt, Germany), and 1% L-glutamine (Corning, Arizona, USA). The human endothelial cell line was maintained in cell media consisting of Endothelial Cell Growth Medium-2 Single Quots Kit (Lonza, USA). Both cell lines were cultured in an incubator at 37 °C and 5% CO2.
(§2) Antifungal activity of the tested compounds against yeast cells was determined in 96-well plates as described in the CLSI document M27-A3 [39], with minor modifications (CLSI, 2008). […] The plates were incubated for 24 h at 37 °C. Each test was performed in triplicate. The final concentration of DMSO was ensured to be around 1% in all experiments.
(§3) For determination of minimum fungicidal concentrations (MFC), small aliquots of suspensions (around 10 μL) from each well were transferred using the pipette to YPD agar plates without inhibitors and incubated for 24 h at 37 °C.

A further data set has as its system Candida albicans 190. The experiment in a line: microbe, parasite or virus in culture. Particulars: 37 °C; for MIC50 / MIC90: C. albicans 190 (fluconazole-resistant clinical isolate), RPMI 1640/MOPS pH 7.0, 24 h, triplicate; for MIC50: at least 50% growth inhibition vs growth control; for MIC90: lowest concentration with no visible growth. As for the experimental part:
as §1, §2, §3

For the next data set, the system named is Candida albicans 247. The experiment in a line: microbe, parasite or virus in culture. Particulars: 37 °C; for MIC50 / MIC90: C. albicans 247 (fluconazole-resistant clinical isolate), RPMI 1640/MOPS pH 7.0, 24 h, triplicate; for MIC50: at least 50% growth inhibition vs growth control; for MIC90: lowest concentration with no visible growth. How it is done:
as §1, §2, §3

Another data set relates to Candida albicans 574. The experiment in a line: microbe, parasite or virus in culture. Particulars: C. albicans 574 (fluconazole-resistant clinical isolate), RPMI 1640/MOPS pH 7.0, 24 h, 37 °C, triplicate; for MIC50: at least 50% growth inhibition vs growth control; for MIC90: lowest concentration with no visible growth. How it is done:
as §1, §2, §3

Data set [1] has as its system Candida albicans ATCC 10231. The experiment in a line: microbe, parasite or virus in culture. Particulars: C. albicans ATCC 10231, 37 °C; for MIC50 / MIC90: RPMI 1640/MOPS pH 7.0, 24 h, triplicate; for MIC50: at least 50% growth inhibition vs growth control; for MIC90: lowest concentration with no visible growth. As for the experimental part:
as §1, §2, §3

In another data set the test system is Candida albicans B3. The experiment in a line: microbe, parasite or virus in culture. Particulars: 37 °C; for MIC50 / MIC90: C. albicans B3 (fluconazole-sensitive isolate), RPMI 1640/MOPS pH 7.0, 24 h, triplicate; for MIC50: at least 50% growth inhibition vs growth control; for MIC90: lowest concentration with no visible growth. How it is done: as §1, §2, §3

In a further data set the test system is Candida albicans B4. The experiment in a line: microbe, parasite or virus in culture. Particulars: 37 °C; for MIC50 / MIC90: C. albicans B4 (fluconazole-resistant, MDR1 overexpression), RPMI 1640/MOPS pH 7.0, 24 h, triplicate; for MIC50: at least 50% growth inhibition vs growth control; for MIC90: lowest concentration with no visible growth. How it is done: as §1, §2, §3

For another data set, the system named is Candida albicans Gu4. The experiment in a line: microbe, parasite or virus in culture. Particulars: 37 °C; for MIC50 / MIC90: C. albicans Gu4 (fluconazole-sensitive isolate), RPMI 1640/MOPS pH 7.0, 24 h, triplicate; for MIC50: at least 50% growth inhibition vs growth control; for MIC90: lowest concentration with no visible growth. How it is done: as §1, §2, §3

The next data set relates to Candida albicans SC 5314. The experiment in a line: microbe, parasite or virus in culture. Particulars: C. albicans SC 5314, 37 °C; for MIC50 / MIC90: RPMI 1640/MOPS pH 7.0, 24 h, triplicate; for MIC50: at least 50% growth inhibition vs growth control; for MIC90: lowest concentration with no visible growth. How it is done:
as §1, §2, §3

Data set [2] has as its system HUVEC cells (human umbilical venous endothelial primary cells). The experiment in a line: MTT cytotoxicity assay. How it is done:
as §1
Hs27 and HUVEC mammalian cell lines were cultured as mentioned above. Once cell lines were about 80% confluent, cells were counted by a hemacytometer (Hausser Scientific, Horsham, PA, USA) and plated in 96-well microtiter plates at concentrations of 4500 cells per well for Hs27 and 2000 cells per well for HUVEC. Cells were allowed to attach overnight. […] The final concentration of DMSO was ensured to be around 1% in all experiments. Cells were incubated with studied compounds for 72 h at 37 °C and 5% CO2. After incubation, 20 µL of MTT solution in PBS (4 mg/mL) was added to all wells and incubated further for 3 h at 37 °C. Formed formazan crystals were dissolved in 150 µL DMSO, and absorbance was measured using an Asys UVM340 multi-well plate reader at λ = 540 nm. Cytotoxicity was determined compared to drug-free control. All experiments were performed in biological triplicates.
For orientation: Formazan colour is commonly taken as a measure of viable cells.

Where [3] appears, read: aliquots plated on YPD agar, 24 h, lowest concentration with no colony growth.

On to `CC[C@H](C)[C@H](NC(=O)[C@H](CCCCN)NC(=O)[C@H](CCCCN)NC(=O)[C@H](C)NC(=O)[C@H](CC(C)C)NC(=O)[C@H](C)NC(=O)[C@H](C)NC(=O)[C@H](CC(C)C)NC(=O)[C@H](C)NC(=O)[C@H](CCCCN)NC(=O)[C@H](CC(C)C)NC(=O)[C@H](CC(N)=O)NC(=O)[C@@H](NC(=O)[C@H](CCCCN)NC(=O)CNC(=O)[C@H](CC(C)C)NC(=O)[C@H](CC(C)C)NC(=O)[C@H](Cc1ccc(O)cc1)NC(=O)CNC(=O)[C@H](C)NC(=O)CCCC(=O)OC(Cn1cncn1)(Cn1cncn1)c1ccc(F)cc1F)[C@@H](C)CC)C(=O)N[C@@H](CC(C)C)C(N)=O` [FLCpOH-TP10-NH2], for which the MIC50 against Candida albicans 138 is listed as 45 µM (≈ 116 µg/mL); with Candida albicans 190 it was 45 µM (≈ 116 µg/mL); against Candida albicans 247, 45 µM (≈ 116 µg/mL); against Candida albicans 574, 45 µM (≈ 116 µg/mL); in data set [1], 15 µM (≈ 38.8 µg/mL); against Candida albicans B3 it was 31 µM (≈ 80.1 µg/mL). Besides, the values for the MIC50 with Candida albicans B4, with Candida albicans Gu4 and against Candida albicans SC 5314 were 62 µM (≈ 160 µg/mL), 45 µM (≈ 116 µg/mL) and 8 µM (≈ 20.7 µg/mL), respectively. For the same compound, the MIC90 against Candida albicans 138 worked out at 62 µM (≈ 160 µg/mL); in the data set with Candida albicans 190, 62 µM (≈ 160 µg/mL); against Candida albicans 247, 62 µM (≈ 160 µg/mL); in the data set with Candida albicans 574, 62 µM (≈ 160 µg/mL); in data set [1], 31 µM (≈ 80.1 µg/mL); with Candida albicans B3, 62 µM (≈ 160 µg/mL). Further, the MIC90 came out at 125 µM (≈ 323 µg/mL) against Candida albicans B4, 62 µM (≈ 160 µg/mL) in the data set with Candida albicans Gu4 and 15 µM (≈ 38.8 µg/mL) against Candida albicans SC 5314. Further, the MFC (commonly the smallest concentration meeting the test's criterion for killing the fungus) in the data set on Candida albicans 138 (C. albicans 138, aliquots plated on YPD agar, 24 h, lowest concentration with no colony growth) is reported as 250 µM (≈ 646 µg/mL); against Candida albicans 190 (C. albicans 190, aliquots plated on YPD agar, 24 h, lowest concentration with no colony growth), 250 µM (≈ 646 µg/mL); in the data set on Candida albicans 247 (C. albicans 247, aliquots plated on YPD agar, 24 h, lowest concentration with no colony growth) it was 250 µM (≈ 646 µg/mL); in data set [1] (setting [3]) it was 62 µM (≈ 160 µg/mL); with Candida albicans B3 (C. albicans B3, aliquots plated on YPD agar, 24 h, lowest concentration with no colony growth) it was 62 µM (≈ 160 µg/mL); with Candida albicans B4 (C. albicans B4, aliquots plated on YPD agar, 24 h, lowest concentration with no colony growth) it was 125 µM (≈ 323 µg/mL). Moreover, the MFC is 62 µM (≈ 160 µg/mL) in the data set on Candida albicans Gu4 (C. albicans Gu4, aliquots plated on YPD agar, 24 h, lowest concentration with no colony growth) and 31 µM (≈ 80.1 µg/mL) in the data set on Candida albicans SC 5314 (setting [3]). In addition, the “In vitro cytotoxicity IC90 ± SEM” value in data set [2] (HUVEC cells, MTT, 72 h, 37 °C, 100–1.5 μM, biological triplicates) turned out to be 34.30 ± 1.00 µM.
Take `O=C(O)CCCC(=O)OC(Cn1cncn1)(Cn1cncn1)c1ccc(F)cc1F` [FLCpOH]: the MIC50 (against Candida albicans 138; with Candida albicans 190; with Candida albicans 247; in the data set on Candida albicans 574; in data set [1]; against Candida albicans B3) was more than 250 µM each time. In addition, the MIC50 against Candida albicans B4, against Candida albicans Gu4 and against Candida albicans SC 5314 was more than 250 µM in each case. In addition, the MIC90 (in the data set with Candida albicans 138; in the data set with Candida albicans 190; in the data set on Candida albicans 247; with Candida albicans 574; in data set [1]; in the data set with Candida albicans B3) was more than 250 µM throughout. Further, the MIC90 against Candida albicans B4, against Candida albicans Gu4 and in the data set with Candida albicans SC 5314 was more than 250 µM each time. Further, in [2], the IC50 (usually the concentration that gives 50% inhibition) is more than 100 µM. In addition, the “In vitro cytotoxicity IC90 ± SEM” value in data set [2] was more than 100 µM.
